# Test results taken from US10351539B2, “Macrocyclic complexes, their process of preparation and use as PET imaging agents” (INSTITUT NATIONAL DE LA SANTE ET DE LA RECHERCHE MEDICALE …, priority 2014, dated 2019).
# Entries after “also recorded” stand apart in the source; their conditions may differ.
# Experiments:
# [1] = Biodistribution in healthy and SRC bearing rats at 1 h after i.v. injection of radiolabelled compounds; format: in vivo; conditions: mean ± SD (n = 3)
# Method: Quantitative biodistribution of radiolabelled compounds was determined in rats: healthy animals as well as rats with primary grade II orthotopic chondrosarcoma at stage Day-30 after induction. The chondrosarcoma model was the Swarm Rat Chondrosarcoma model (SRC) implanted in paratibial location. Radiolabelled compounds (5-10 Mbq/animal) were i.v. administered in the caudal vein of animals being anesthetized of mixture of ketamine (58 mg/kg i.p.) (Imalgéne 500®) and xylazine (6 mg/kg i.p.) (Rompun® 2%, Bayer, France). One hour after injection, animals were then sacrificed by CO2 inhalation, dissected and organs of interest removed, weighed and their radioactivity counted using a gamma counter (Model 1480 Wizard, Perkin Elmer Life Sciences, Boston, USA). Organs collected were blood, muscle, knee, kidneys, liver, thoracic ribs, bladder for both healthy and chondrosarcoma bearing rats. For SRC animals, tumour was also sampled. After radioactive decay correction, results were expressed for each organ as % injected dose per gram (% ID/g) and averaged per group.
# [2] = Study 2: biodistribution in healthy New Zealand rabbits (gamma counting of dissected organs); format: in vivo; conditions: for Uptake ratio Cartilage/Bone / Uptake ratio Cartilage/Muscle / Articular Cartilage / Bile / Blood / Bone / Bone Marrow / Kidney / Liver / Lung / Muscle / Spleen / Thyroid / Urine: i.v.
# Method: Biodistribution were determined in 36 healthy New Zealand rabbits (18 males and 18 females, 14 weeks old, 3.5 kg weight, Charles River, France), being randomly divided into two groups: • One group receiving ^99mTc-NTP 15-5: 18±3 MBq/animal for biodistribution; • One group receiving ^64Cu-2: 17±4 MBq/animal for biodistribution.
# The compounds were i.v. administered to anesthetized animals (ketamine/xylazine by intramuscular route) in the marginal ear vein.
# At selected time points after injection (15 min, 1 h, 3 h, 6 h, 20 h after injection), animals (3 animals/time point/compound) were sacrificed by a lethal i.v. dose of pentobarbital. Organs of interest were dissected, weighed and their radioactivity measured using a gamma counter (Model 1480 Wizard, Perkin Elmer Life Sciences, Boston, USA). After radioactive decay correction, results were expressed for each organ as % injected dose per gram (% ID/g) and averaged per group and per time point.
smiles,measurement,setting,value
"CC[N+](CC)(CC)CCCN1CCNCCNCCNCCNCC1.[64Cu+2] [^64Cu-2, [^64Cu]—N,N,N-Triethyl-3-(1,4,7,10,13-pentaazacyclopentadecan-1-yl)propan-1-aminium copper(II)]",Tumor,[1]; SRC (Swarm Rat Chondrosarcoma) bearing rats,3.5 ± 0.5 % ID/g
same,Articular Cartilage,[1]; healthy and SRC bearing rats,2.6 ± 1.1 % ID/g
same,Bladder,[1]; healthy and SRC bearing rats,62.2 ± 17.6 % ID/g
same,Blood,[1]; healthy and SRC bearing rats,0.1 ± 0.05 % ID/g
same,Kidney,[1]; healthy and SRC bearing rats,16.4 ± 6.6 % ID/g
same,Muscle,[1]; healthy and SRC bearing rats,0.4 ± 0.3 % ID/g
same,Accumulation in kidneys compared to ^99mTc-NTP 15-5,[2],significantly higher
same,Cartilage/muscle and cartilage/Bone ratios compared to ^99mTc-NTP 15-5,[2],higher
same,Duration of liver accumulation compared to ^99mTc-NTP 15-5,[2],shorter
same,Accumulation in cartilage (onset),[2]; as early as 15 min p.i.,rapidly accumulate
same,Uptake into the cartilages compared to ^99mTc-NTP 15-5,[2]; each time investigated,faster and higher uptake; also recorded: higher levels
same,Uptake ratio Cartilage/Bone,[2]; 15 min,120
same,Uptake ratio Cartilage/Muscle,[2]; 15 min,282
same,Articular Cartilage,[2]; 15 min after injection,8.46 ± 6.18 % ID/g
same,Bile,[2]; 15 min after injection,0.07 ± 0.04 % ID/g
same,Blood,[2]; 15 min after injection,0.31 ± 0.17 % ID/g
same,Bone,[2]; 15 min after injection,0.07 ± 0.02 % ID/g
same,Bone Marrow,[2]; 15 min after injection,0.08 ± 0.04 % ID/g
same,Kidney,[2]; 15 min after injection,0.65 ± 0.47 % ID/g
same,Liver,[2]; 15 min after injection,0.11 ± 0.03 % ID/g
same,Lung,[2]; 15 min after injection,0.23 ± 0.14 % ID/g
same,Muscle,[2]; 15 min after injection,0.03 ± 0.02 % ID/g
same,Spleen,[2]; 15 min after injection,0.11 ± 0.08 % ID/g
same,Thyroid,[2]; 15 min after injection,0.11 ± 0.08 % ID/g
same,Urine,[2]; 15 min after injection,1.51 ± 2.22 % ID/g
same,Uptake ratio Cartilage/Bone,[2]; 1 h,484
same,Uptake ratio Cartilage/Muscle,[2]; 1 h,484
same,Articular Cartilage,[2]; 1 h after injection,4.81 ± 1.16 % ID/g
same,Bile,[2]; 1 h after injection,0.03 ± 0.02 % ID/g
same,Blood,[2]; 1 h after injection,0.08 ± 0.02 % ID/g
same,Bone,[2]; 1 h after injection,0.01 ± 0.00 % ID/g
same,Bone Marrow,[2]; 1 h after injection,0.03 ± 0.01 % ID/g
same,Kidney,[2]; 1 h after injection,0.26 ± 0.07 % ID/g
same,Liver,[2]; 1 h after injection,0.04 ± 0.01 % ID/g
same,Lung,[2]; 1 h after injection,0.07 ± 0.02 % ID/g
same,Muscle,[2]; 1 h after injection,0.01 ± 0.00 % ID/g
same,Spleen,[2]; 1 h after injection,0.03 ± 0.01 % ID/g
same,Thyroid,[2]; 1 h after injection,0.03 ± 0.01 % ID/g
same,Urine,[2]; 1 h after injection,1.69 ± 2.14 % ID/g
same,Articular Cartilage,[2]; 3 h after injection,2.31 ± 0.32 % ID/g
same,Bile,[2]; 3 h after injection,0.11 ± 0.17 % ID/g
same,Blood,[2]; 3 h after injection,0.02 ± 0.00 % ID/g
same,Bone,[2]; 3 h after injection,0.01 ± 0.00 % ID/g
same,Bone Marrow,[2]; 3 h after injection,0.01 ± 0.00 % ID/g
same,Kidney,[2]; 3 h after injection,0.22 ± 0.01 % ID/g
same,Liver,[2]; 3 h after injection,0.02 ± 0.00 % ID/g
same,Lung,[2]; 3 h after injection,0.03 ± 0.00 % ID/g
same,Muscle,[2]; 3 h after injection,0.00 ± 0.00 % ID/g
same,Spleen,[2]; 3 h after injection,0.02 ± 0.00 % ID/g
same,Thyroid,[2]; 3 h after injection,0.04 ± 0.05 % ID/g
same,Urine,[2]; 3 h after injection,0.92 ± 0.63 % ID/g
same,Articular Cartilage,[2]; 6 h after injection,1.00 ± 1.02 % ID/g
same,Bile,[2]; 6 h after injection,0.02 ± 0.02 % ID/g
same,Blood,[2]; 6 h after injection,0.02 ± 0.02 % ID/g
same,Bone,[2]; 6 h after injection,0.00 ± 0.00 % ID/g
same,Bone Marrow,[2]; 6 h after injection,0.01 ± 0.01 % ID/g
same,Kidney,[2]; 6 h after injection,0.26 ± 0.14 % ID/g
same,Liver,[2]; 6 h after injection,0.02 ± 0.02 % ID/g
same,Lung,[2]; 6 h after injection,0.02 ± 0.02 % ID/g
same,Muscle,[2]; 6 h after injection,0.00 ± 0.00 % ID/g
same,Spleen,[2]; 6 h after injection,0.02 ± 0.02 % ID/g
same,Thyroid,[2]; 6 h after injection,0.00 ± 0.00 % ID/g
same,Urine,[2]; 6 h after injection,6.90 ± 7.93 % ID/g
same,Articular Cartilage,[2]; 20 h after injection,0.10 ± 0.02 % ID/g
same,Bile,[2]; 20 h after injection,0.01 ± 0.00 % ID/g
same,Blood,[2]; 20 h after injection,0.00 ± 0.00 % ID/g
same,Bone,[2]; 20 h after injection,0.00 ± 0.00 % ID/g
same,Bone Marrow,[2]; 20 h after injection,0.00 ± 0.00 % ID/g
same,Kidney,[2]; 20 h after injection,0.06 ± 0.01 % ID/g
same,Liver,[2]; 20 h after injection,0.00 ± 0.00 % ID/g
same,Lung,[2]; 20 h after injection,0.00 ± 0.00 % ID/g
same,Muscle,[2]; 20 h after injection,0.00 ± 0.00 % ID/g
same,Spleen,[2]; 20 h after injection,0.01 ± 0.00 % ID/g
same,Thyroid,[2]; 20 h after injection,0.00 ± 0.00 % ID/g
same,Urine,[2]; 20 h after injection,0.25 ± 0.22 % ID/g
same,Urinary elimination,[2]; indicated by accumulation in kidneys,high/rapid
same,In vivo stability (release of ^64Cu from transchelation or transmetalation negligible),[2]; inferred from liver uptake,stable
